Where a name gives a salt, the structure may show the parent alone.
Experiment: Permanent wave processing of hair, wave efficiency by Kilby method
Conditions: for Wave efficiency: compound at 2% in terms of reducing power of thioglycolic acid, soaked at 35° C. for 20 minutes, bromate second liquid 25° C. 10 minutes
Procedure: A permanent wave first liquid was prepared as described below using the alkoxyalkyl mercaptocarboxylate (TGE-1) obtained in Synthetic Example 1. A permanent wave second liquid was prepared as described below. Hair was permanent waved with these liquids, and the wave efficiency was obtained.
[…] The mixing was performed such that the total amount would be 100 g. A permanent wave first liquid was thus prepared.
The agent contained TGE-1 in an amount of 2% in terms of reducing power of thioglycolic acid.
5 g of sodium bromate and 95 g of purified water were mixed together to give a permanent wave second liquid.
The wave efficiency was evaluated by a Kilby method as described in Fragrance Journal Extra Edition (1984, No. 5, P. 442). A liquid containing cysteamine hydrochloride was used as the comparative agent.
Chinese hair (approximately 20 cm long) was fixed to a Kilby apparatus and was soaked in the permanent wave first liquid heated to 35° C. over a period of 20 minutes. Thereafter, the hair was lightly towel dried such that the first liquid would not drip. The hair was then given the bromate-based permanent wave second liquid, and was allowed to stand at 25° C. for 10 minutes. After the completion of the treatment with the second liquid, the hair was rinsed with running water and was removed from the Kilby apparatus, followed by drying. The dried hair was measured and the wave efficiency was determined from the following equation. Wave efficiency(%)=100−[100×(B−A)]÷(C−A) wherein:
A: Distance between the first and sixth rods of the Kilby apparatus (actual measurement value between the central points of the rods)
B: Length of six waves of curled hair
C: Length of straightened six waves of curled hair
A permanent wave first liquid was prepared as described in Example 1, except that TGE-1 was replaced with the alkoxyalkyl mercaptocarboxylate indicated in Table 1. The permanent wave first liquid contained the alkoxyalkyl mercaptocarboxylate in an amount of 2% in terms of reducing power of thioglycolic acid.
Hair was permanent waved and the wave efficiency was obtained by the procedure of Example 1 with use of the permanent wave first liquid prepared as above and the permanent wave second liquid used in Example 1.
A permanent wave first liquid was prepared as described in Example 1, except that TGE-1 was replaced with the cysteamine hydrochloride indicated in Table 1. The permanent wave first liquid contained the […] in an amount of 2% in terms of reducing power of thioglycolic acid.

Molecule	Wave efficiency (pH 6 first liquid) [%]	Wave efficiency (pH 7.5 first liquid) [%]	Wave efficiency (pH 9 first liquid) [%]	Behaviour of wave efficiency across pH range (neutral to acidic versus alkaline pH, summary of Table 1)
2-butoxyethyl thiolactate [TNE-3]	73	73	72	
NCCS [Cysteamine hydrochloride, cysteamine hydrochloride, reference compound]	52	65	73	drastic deterioration of wave efficiency with the pH lowering to a neutral to acidic region
CCOCCOC(=O)CS [TGE-2, 2-ethoxyethyl thioglycolate]	84	87	86	
CCCCOCCOC(=O)CS [TGE-3, 2-butoxyethyl thioglycolate]	79	79	82	
CCOCCOCCOC(=O)CS [TGE-5, 5-ethoxy-3-oxapentyl thioglycolate]	70	70	71	
COCCOCCOCCOC(=O)CS [TGE-6, 8-methoxy-3,6-dioxaoctyl thioglycolate]	63	67	65	
COCC(C)OC(=O)CS (stereo not shown) [TGE-7, 2-methoxy-1-methylethyl thioglycolate]	79	81	81	
CCOCC(C)OC(=O)CS (stereo not shown) [TGE-8, 2-ethoxy-1-methylethyl thioglycolate]	80	82	83	
COCCOCCOCCOC(=O)CS [TGE-9, 8-methoxy-3,6-dioxaoctyl thioglycolate]	75	75	76	

From patent publication US20080031839A1, “Agent For Prermanent Hair Processing” (Showa Denko K.K., priority 2004, published 2008)
